The NIST ThermoML archive (doi:10.1016/j.jct.2012.06.012)

Test: xn = mol fraction of the nth substance listed
Details: Liquid, Vibrating tube method

CCCCCCCCCC [decane] + CCO
Details	mass density [kg/m3]
313.07 K, 1000 kPa, x2 = 0.9014	753.75
313.07 K, 2000 kPa, x2 = 0.9014	754.71
313.07 K, 3000 kPa, x2 = 0.9014	755.67
313.07 K, 4000 kPa, x2 = 0.9014	756.61
313.07 K, 5000 kPa, x2 = 0.9014	757.53
313.07 K, 6000 kPa, x2 = 0.9014	758.44
313.07 K, 7000 kPa, x2 = 0.9014	759.33
313.07 K, 8000 kPa, x2 = 0.9014	760.24
313.07 K, 9000 kPa, x2 = 0.9014	761.14
313.07 K, 10000 kPa, x2 = 0.9014	762.04
313.07 K, 11000 kPa, x2 = 0.9014	762.94
313.07 K, 12000 kPa, x2 = 0.9014	763.84
313.07 K, 13000 kPa, x2 = 0.9014	764.72
313.07 K, 14000 kPa, x2 = 0.9014	765.58
313.07 K, 15000 kPa, x2 = 0.9014	766.45
313.07 K, 16000 kPa, x2 = 0.9014	767.29
313.07 K, 17000 kPa, x2 = 0.9014	768.13
313.07 K, 18000 kPa, x2 = 0.9014	768.94
313.07 K, 19000 kPa, x2 = 0.9014	769.74
313.07 K, 20000 kPa, x2 = 0.9014	770.52
313.08 K, 1000 kPa, x2 = 0.1011	715.15
313.08 K, 1000 kPa, x2 = 0.4963	724.28
313.08 K, 1000 kPa, x2 = 0.7526	738.33
313.08 K, 2000 kPa, x2 = 0.1011	716.05
313.08 K, 2000 kPa, x2 = 0.4963	725.2
313.08 K, 2000 kPa, x2 = 0.7526	739.26
313.08 K, 3000 kPa, x2 = 0.1011	716.93
313.08 K, 3000 kPa, x2 = 0.4963	726.11
313.08 K, 3000 kPa, x2 = 0.7526	740.19
313.08 K, 4000 kPa, x2 = 0.1011	717.8
313.08 K, 4000 kPa, x2 = 0.4963	727
313.08 K, 4000 kPa, x2 = 0.7526	741.1
313.08 K, 5000 kPa, x2 = 0.1011	718.66
313.08 K, 5000 kPa, x2 = 0.4963	727.87
313.08 K, 5000 kPa, x2 = 0.7526	741.99
313.08 K, 6000 kPa, x2 = 0.1011	719.51
313.08 K, 6000 kPa, x2 = 0.4963	728.73
313.08 K, 6000 kPa, x2 = 0.7526	742.87
313.08 K, 7000 kPa, x2 = 0.1011	720.34
313.08 K, 7000 kPa, x2 = 0.4963	729.58
313.08 K, 7000 kPa, x2 = 0.7526	743.75
313.08 K, 8000 kPa, x2 = 0.1011	721.16
313.08 K, 8000 kPa, x2 = 0.4963	730.44
313.08 K, 8000 kPa, x2 = 0.7526	744.64
313.08 K, 9000 kPa, x2 = 0.1011	721.98
313.08 K, 9000 kPa, x2 = 0.4963	731.3
313.08 K, 9000 kPa, x2 = 0.7526	745.53
313.08 K, 10000 kPa, x2 = 0.1011	722.8
313.08 K, 10000 kPa, x2 = 0.4963	732.16
313.08 K, 10000 kPa, x2 = 0.7526	746.41
313.08 K, 11000 kPa, x2 = 0.1011	723.63
313.08 K, 11000 kPa, x2 = 0.4963	733
313.08 K, 11000 kPa, x2 = 0.7526	747.29
313.08 K, 12000 kPa, x2 = 0.1011	724.45
313.08 K, 12000 kPa, x2 = 0.4963	733.86
313.08 K, 12000 kPa, x2 = 0.7526	748.17
313.08 K, 13000 kPa, x2 = 0.1011	725.26
313.08 K, 13000 kPa, x2 = 0.4963	734.7
313.08 K, 13000 kPa, x2 = 0.7526	749.03
313.08 K, 14000 kPa, x2 = 0.1011	726.06
313.08 K, 14000 kPa, x2 = 0.4963	735.54
313.08 K, 14000 kPa, x2 = 0.7526	749.89
313.08 K, 15000 kPa, x2 = 0.1011	726.85
313.08 K, 15000 kPa, x2 = 0.4963	736.35
313.08 K, 15000 kPa, x2 = 0.7526	750.73
313.08 K, 16000 kPa, x2 = 0.1011	727.63
313.08 K, 16000 kPa, x2 = 0.4963	737.16
313.08 K, 16000 kPa, x2 = 0.7526	751.56
313.08 K, 17000 kPa, x2 = 0.1011	728.39
313.08 K, 17000 kPa, x2 = 0.4963	737.95
313.08 K, 17000 kPa, x2 = 0.7526	752.38
313.08 K, 18000 kPa, x2 = 0.1011	729.13
313.08 K, 18000 kPa, x2 = 0.4963	738.72
313.08 K, 18000 kPa, x2 = 0.7526	753.17
313.08 K, 19000 kPa, x2 = 0.1011	729.85
313.08 K, 19000 kPa, x2 = 0.4963	739.47
313.08 K, 19000 kPa, x2 = 0.7526	753.95
313.08 K, 20000 kPa, x2 = 0.1011	730.55
313.08 K, 20000 kPa, x2 = 0.4963	740.21
313.08 K, 20000 kPa, x2 = 0.7526	754.7
313.09 K, 1000 kPa, x2 = 0.0937	715.17
313.09 K, 2000 kPa, x2 = 0.0937	716.07
313.09 K, 3000 kPa, x2 = 0.0937	716.95
313.09 K, 4000 kPa, x2 = 0.0937	717.82
313.09 K, 5000 kPa, x2 = 0.0937	718.68
313.09 K, 6000 kPa, x2 = 0.0937	719.53
313.09 K, 7000 kPa, x2 = 0.0937	720.36
313.09 K, 8000 kPa, x2 = 0.0937	721.18
313.09 K, 9000 kPa, x2 = 0.0937	721.99
313.09 K, 10000 kPa, x2 = 0.0937	722.79
313.09 K, 11000 kPa, x2 = 0.0937	723.62
313.09 K, 12000 kPa, x2 = 0.0937	724.43
313.09 K, 13000 kPa, x2 = 0.0937	725.25
313.09 K, 14000 kPa, x2 = 0.0937	726.06
313.09 K, 15000 kPa, x2 = 0.0937	726.84
313.09 K, 16000 kPa, x2 = 0.0937	727.61
313.09 K, 17000 kPa, x2 = 0.0937	728.37
313.09 K, 18000 kPa, x2 = 0.0937	729.11
313.09 K, 19000 kPa, x2 = 0.0937	729.84
313.09 K, 20000 kPa, x2 = 0.0937	730.54
313.11 K, 1000 kPa, x2 = 0.2507	717.71
313.11 K, 2000 kPa, x2 = 0.2507	718.61
313.11 K, 3000 kPa, x2 = 0.2507	719.5
313.11 K, 4000 kPa, x2 = 0.2507	720.38
313.11 K, 5000 kPa, x2 = 0.2507	721.25
313.11 K, 6000 kPa, x2 = 0.2507	722.07
313.11 K, 7000 kPa, x2 = 0.2507	722.9
313.11 K, 8000 kPa, x2 = 0.2507	723.74
313.11 K, 9000 kPa, x2 = 0.2507	724.57
313.11 K, 10000 kPa, x2 = 0.2507	725.41
313.11 K, 11000 kPa, x2 = 0.2507	726.25
313.11 K, 12000 kPa, x2 = 0.2507	727.08
313.11 K, 13000 kPa, x2 = 0.2507	727.91
313.11 K, 14000 kPa, x2 = 0.2507	728.72
313.11 K, 15000 kPa, x2 = 0.2507	729.52
313.11 K, 16000 kPa, x2 = 0.2507	730.3
313.11 K, 17000 kPa, x2 = 0.2507	731.07
313.11 K, 18000 kPa, x2 = 0.2507	731.81
313.11 K, 19000 kPa, x2 = 0.2507	732.55
313.11 K, 20000 kPa, x2 = 0.2507	733.26
322.98 K, 1000 kPa, x2 = 0.4963	715.95
322.98 K, 2000 kPa, x2 = 0.4963	716.92
322.98 K, 3000 kPa, x2 = 0.4963	717.88
322.98 K, 4000 kPa, x2 = 0.4963	718.83
322.98 K, 5000 kPa, x2 = 0.4963	719.75
322.98 K, 6000 kPa, x2 = 0.4963	720.66
322.98 K, 7000 kPa, x2 = 0.4963	721.56
322.98 K, 8000 kPa, x2 = 0.4963	722.48
322.98 K, 9000 kPa, x2 = 0.4963	723.39
322.98 K, 10000 kPa, x2 = 0.4963	724.3
322.98 K, 11000 kPa, x2 = 0.4963	725.2
322.98 K, 12000 kPa, x2 = 0.4963	726.08
322.98 K, 13000 kPa, x2 = 0.4963	726.98
322.98 K, 14000 kPa, x2 = 0.4963	727.85
322.98 K, 15000 kPa, x2 = 0.4963	728.71
322.98 K, 16000 kPa, x2 = 0.4963	729.56
322.98 K, 17000 kPa, x2 = 0.4963	730.39
322.98 K, 18000 kPa, x2 = 0.4963	731.19
322.98 K, 19000 kPa, x2 = 0.4963	731.99
322.98 K, 20000 kPa, x2 = 0.4963	732.78
322.99 K, 1000 kPa, x2 = 0.0937	707.2
322.99 K, 1000 kPa, x2 = 0.9014	745.03
322.99 K, 2000 kPa, x2 = 0.0937	708.15
322.99 K, 2000 kPa, x2 = 0.9014	746.04
322.99 K, 3000 kPa, x2 = 0.0937	709.09
322.99 K, 3000 kPa, x2 = 0.9014	747.05
322.99 K, 4000 kPa, x2 = 0.0937	710.01
322.99 K, 4000 kPa, x2 = 0.9014	748.04
322.99 K, 5000 kPa, x2 = 0.0937	710.92
322.99 K, 5000 kPa, x2 = 0.9014	749.01
322.99 K, 6000 kPa, x2 = 0.0937	711.82
322.99 K, 6000 kPa, x2 = 0.9014	749.97
322.99 K, 7000 kPa, x2 = 0.0937	712.7
322.99 K, 7000 kPa, x2 = 0.9014	750.92
322.99 K, 8000 kPa, x2 = 0.0937	713.57
322.99 K, 8000 kPa, x2 = 0.9014	751.88
322.99 K, 9000 kPa, x2 = 0.0937	714.44
322.99 K, 9000 kPa, x2 = 0.9014	752.84
322.99 K, 10000 kPa, x2 = 0.0937	715.32
322.99 K, 10000 kPa, x2 = 0.9014	753.79
322.99 K, 11000 kPa, x2 = 0.0937	716.18
322.99 K, 11000 kPa, x2 = 0.9014	754.74
322.99 K, 12000 kPa, x2 = 0.0937	717.04
322.99 K, 12000 kPa, x2 = 0.9014	755.67
322.99 K, 13000 kPa, x2 = 0.0937	717.9
322.99 K, 13000 kPa, x2 = 0.9014	756.6
322.99 K, 14000 kPa, x2 = 0.0937	718.73
322.99 K, 14000 kPa, x2 = 0.9014	757.52
322.99 K, 15000 kPa, x2 = 0.0937	719.56
322.99 K, 15000 kPa, x2 = 0.9014	758.41
322.99 K, 16000 kPa, x2 = 0.0937	720.37
322.99 K, 16000 kPa, x2 = 0.9014	759.31
322.99 K, 17000 kPa, x2 = 0.0937	721.18
322.99 K, 17000 kPa, x2 = 0.9014	760.18
322.99 K, 18000 kPa, x2 = 0.0937	721.95
322.99 K, 18000 kPa, x2 = 0.9014	761.04
322.99 K, 19000 kPa, x2 = 0.0937	722.72
322.99 K, 19000 kPa, x2 = 0.9014	761.88
322.99 K, 20000 kPa, x2 = 0.0937	723.46
322.99 K, 20000 kPa, x2 = 0.9014	762.71
